Measurements: patent US9511010B2, “Compounds useful in the treatment and/or care of the skin, hair and/or mucous membranes and their cosmetic or pharmaceutical compositions” (Lubrizol Advanced Materials, Inc., priority 2012, dated 2016)

Assays:
[1] = test system: HEKa primary keratinocytes; experiment: Host cell reactivation (HCR) assay, activation of DNA repair in primary keratinocytes; assay type: cell-based, human; conditions: 24 hours, basal = 100
Method: The host cell reactivation (HCR) assay was used in HEKa primary keratinocytes to evaluate the capacity of the peptides of the invention to repair the damage to the DNA in a biologically functional way. 40,000 cells per well were seeded and they were co-transfected with a control plasmid which constitutively expresses the Firefly luciferase gene (pGL3), previously damaged by UVC, and with an undamaged plasmid which constitutively expresses the Renilla luciferase gene (vector pRluc-N1(h)).
Subsequently the cells were incubated with the compounds of the invention at 0.025 mg/mL and 0.5 mg/mL in EpiLife medium for 24 hours, after which the luminescence due to the activity of the Firefly and Renilla luciferases was measured using the Dual-Go Luciferase Assay System kit following the manufacturer's instructions. The carrier in which the compounds of the invention (EpiLife medium) were dissolved was used as a negative control. The activation percentage of the DNA repair for each sample was calculated standardizing the luminescence values of the Firefly luciferase with regard to the Renilla luciferase, subsequently standardizing with regard to the values of the negative control.
Each experiment was carried out three times in 3 independent experiments.

HDFa cells = experiment: Photo repair effectiveness in human fibroblasts (Neutral Red viability, treatment after irradiation); assay type: cell-based; conditions: for Cell viability: irradiated control 63.06%; for Effectiveness Photo-repair (%): irradiated
Method: HDFa cells were put in culture medium for 24 hours in 96-well plates to form monolayers at 37° C. and humidified air with 5% CO2. Afterwards the culture medium was changed for D-PBS and the cells were irradiated with a solar simulation lamp at ˜40 J/cm^2 for 180 min at room temperature. A control plate was kept in the dark for the same time at room temperature.
Afterwards 0.5 mg/mL, 0.1 mg/mL, 0.01 mg/mL of Ac-L-Tyr-L-Glu-L-Lys-L-Leu-L-Gln-L-Val-NH2 (Ac-SEQ ID NO:22-NH2) in culture medium or culture medium alone (control) were added to the cells and they were incubated for 24 hours in darkness at 37° C. and humidified air with 5% CO2.
The cell viability was determined with the Neutral Red dye, measuring the absorbency at 540 nm in a spectrophotometer.
The photorepair effectiveness was determined by comparing the viability obtained in cells treated with Ac-L-Tyr-L-Glu-L-Lys-L-Leu-L-Gln-L-Val-N H2 (Ac-SEQ ID NO:22-NH2) with the irradiated and non-irradiated control cell response.

[2] = test system: senescence-associated β-galactosidase (SA-β-Gal) in HDFa cells; experiment: Reduction of cell senescence in human fibroblasts (SA-β-Gal histochemical detection); assay type: cell-based; conditions: for Proportion of positive SA-β-gal cells: 24 hours, HDF, control 27.28
Method: A widely used assay to evaluate cell senescence is histochemical detection of the activity, of the β-galactosidase, called SA-β-Gal. The activity of the β-galactosidase is derived from the increase in the lysosomal content of senescent cells, which enables the detection of the lysosomal β-galactosidase at pH 6.0. The β-galactosidase is considered a marker of senescence both in vitro and in vivo.
With this objective, HDFa cells from phase 4 of a person were seeded in 96-well plates at 10,000 cells/well in culture medium 106 supplemented with 2% LSGS. After 24 hours the culture medium was removed and the cells were treated with 0.025 mg/mL and 0.01 mg/mL of Ac-L-Tyr-L-Glu-L-Lys-L-Leu-L-Gln-L-Val-NH2 (Ac-SEQ ID NO:22-NH2) in culture medium 106 for another 24 hours at 37° C. and humidified air with 5% CO2.
As a positive control of cell senescence (old fibroblasts) HDFa from phase […] of a person were used treated with culture medium; as a negative control of cell senescence (juvenile fibroblasts) HDFa from phase 4 were used from a person treated with culture medium.
After the incubation period the activity of the senescence-associated β-galactosidase (SA-β-Gal) was determined with the Senescence Cells Histochemical Kit.

[3] = test system: Fibroblasts from a sample of human skin; experiment: Alkaline comet assay, protection against genotoxicity induced by photo-activated benzo[a]pyrene (BaP); assay type: cell-based; conditions: 0.01 mg/mL
Method: Fibroblasts from a sample of human skin were isolated and incubated with 0.01 mg/mL of Ac-L-Tyr-L-Glu-L-Lys-L-Leu-L-Gln-L-Val-NH2 (Ac-SEQ ID NO:22-NH2) or carrier (control) with and without the presence of 40 μM BaP for 2 hours at 37° C. Once this contact time was over the cells were irradiated with 90 KJ/m^2 UVA/visible light (320-800 nm) for a maximum of 2 min at 4° C. to induce photo activation of BaP which damages the DNA. This damage was analyzed by the alkaline comet assay, detecting the DNA breakages. The protective effectiveness of the damage to the DNA of the different treatments was determined by analyzing the images using the software Fenestra Komet 5.5, expressing the damage to the DNA as the Olive Tail Moment (OTM; arbitrary units) and the χ^2 OTM function was determined, related to the quantity of damaged DNA, with the software TableCurve 2D.
As a negative control all the non-irradiated treatments were included (control, 40 μM BaP, 0.01 mg/mL of Ac-SEQ ID NO:22-NH2 and 0.01 mg/mL of (Ac-SEQ ID NO:22-NH2)+40 μM BaP). In table 14 the protective effectiveness results of Ac-SEQ ID NO:22-NH2 in human fibroblasts are shown.
The protection percentage conferred by the compound Ac-SEQ ID NO:22-NH2 against DNA damage induced by BaP was shown as the relationship of the value of χ^2 OTM for treatment with the compound Ac-SEQ ID NO:22-NH2 in the presence of photo-activated BaP with regard to the value of χ^2 OTM of the treatment with photo-activated BaP according to the formula resulting in a protection percentage conferred by the compound Ac-SEQ ID NO:22-NH2 against damage to DNA induced by BaP of 84.3%.

Ac-YEKLQV-NH2 [Ac-SEQ ID NO: 22-NH2, Ac-L-Tyr-L-Glu-L-Lys-L-Leu-L-Gln-L-Val-NH2]
Activation Average (%) of DNA repair, HCR assay ([1]; 0.025 mg/mL): 203% | Activation Average (%) of DNA repair, HCR assay ([1]; 0.5 mg/mL): 272% | Cell viability (HDFa cells; 0.01 mg/mL for 24 hours after irradiation ~40 J/cm^2): 71.99% | Effectiveness Photo-repair (%) (HDFa cells; 0.01 mg/mL): 14.16% | Cell viability (HDFa cells; 0.1 mg/mL for 24 hours after irradiation ~40 J/cm^2): 70.71% | Effectiveness Photo-repair (%) (HDFa cells; 0.1 mg/mL): 12.13% | Cell viability (HDFa cells; 0.5 mg/mL for 24 hours after irradiation ~40 J/cm^2): 71.40% | Effectiveness Photo-repair (%) (HDFa cells; 0.5 mg/mL): 13.23% | Proportion of positive SA-β-gal cells ([2]; 0.01 mg/mL): 7.02 | Proportion of positive SA-β-gal cells ([2]; 0.025 mg/mL): 16.90 | Effect on proportion of cells containing β-galactosidase (in words) ([2]; HDFa): reduced the proportion of cells containing β-galactosidase | χ^2 OTM ([3]; 40 μM BaP, irradiation with UVA/visible, BaP alone 11.38): 3.52 | χ^2 OTM ([3]; 40 μM BaP, no irradiation, BaP alone 2.07): 2.18 | χ^2 OTM ([3]; no BaP, irradiation with UVA/visible, control 2.25): 2.09 | χ^2 OTM ([3]; no BaP, no irradiation, control 2.08): 2.26 | protection percentage against damage to DNA induced by BaP ([3]; photo-activated 40 μM BaP): 84.3%
